For 10 molecules, IC50 and Activity results are on record in ChEMBL document CHEMBL6071152, “Design, synthesis, and biological evaluation of oridonin derivatives as novel NLRP3 inflammasome inhibitors for the treatment of acute lung injury” (Eur J Med Chem, 2024).

One may read the IC50 as the concentration needed to halve the response being measured.

Activity calls are given as the source filed them. The rule behind the calls is not given here.

A short description of data set [1]: Cytotoxicity against ICR mouse BMDM assessed as reduction in cell viability incubated for 24 hrs by CCK8 assay. Type of data set: toxicity, cell-based. Particulars: BMDM (bone marrow-derived macrophages). For orientation: Formazan colour is commonly taken as a measure of viable cells.
Data set [2] deals with NACHT, LRR and PYD domains-containing protein 3 (Mus musculus, UniProt Q8R4B8). In words: Inhibition of NLRP3 inflammasome activation in ICR mouse BMDM assessed as inhibition of LPS/ATP-stimulated IL-1 beta production in cell supernatant treated for 3 hrs with LPS followed by incubation with compound for 1 hr and later stimulated with ATP for 0.5 hrs by ELISA. Type of data set: cell-based. Background: In an ELISA, binding on a coated surface is turned into a signal by an enzyme label.

The subject of data set [3] is Mus musculus. In words: Anti-inflammatory activity against LPS-stimulated acute lung injury C57BL/6 mouse model assessed as decrease in inflammatory cell infiltration in right lung at 5 mg/kg, ip treated for 3 days and on third day administered with LPS at 30 mins post-compound challenge and measured after 12 hrs by Hematoxylin-Eosin staining analysis. Particulars: time 3.5 day. It counts as functional, organism-based.

The subject of data set [4] is Mus musculus. In words: Anti-inflammatory activity against LPS-stimulated acute lung injury C57BL/6 mouse model assessed as active animal at 5 mg/kg, ip treated for 3 days and on third day administered with LPS at 30 mins post-compound challenge. It counts as functional, organism-based. Particulars: time 3.0 day.
Data set [5] has as its system Mus musculus. In words: Anti-inflammatory activity against LPS-stimulated acute lung injury C57BL/6 mouse model assessed as decrease in partial alveolar congestion in right lung at 5 mg/kg, ip treated for 3 days and on third day administered with LPS at 30 mins post-compound challenge and measured after 12 hrs by Hematoxylin-Eosin staining analysis. Type of data set: functional, organism-based. Particulars: time 3.5 day.

Data set [6] deals with Mus musculus. Description: Anti-inflammatory activity against LPS-stimulated acute lung injury C57BL/6 mouse model assessed as decrease in thickening of alveolar septa in right lung at 5 mg/kg, ip treated for 3 days and on third day administered with LPS at 30 mins post-compound challenge and measured after 12 hrs by Hematoxylin-Eosin staining analysis. It counts as functional, organism-based. Particulars: time 3.5 day.

For data set [7], the system named is Mus musculus. In words: Anti-inflammatory activity against LPS-stimulated acute lung injury C57BL/6 mouse model assessed as decrease in weight loss at 5 mg/kg, ip treated for 3 days and on third day administered with LPS at 30 mins post-compound challenge. It counts as functional, organism-based. The note with it: time 3.0 day.
In data set [8] the test system is Mus musculus. Description: Anti-inflammatory activity against LPS-stimulated acute lung injury C57BL/6 mouse model assessed as decrease in alveolar dilation in right lung at 5 mg/kg, ip treated for 3 days and on third day administered with LPS at 30 mins post-compound challenge and measured after 12 hrs by Hematoxylin-Eosin staining analysis. Type of data set: functional, organism-based. Particulars: time 3.5 day.

Data set [9] deals with Mus musculus. In words: Anti-inflammatory activity against LPS-stimulated acute lung injury C57BL/6 mouse model assessed as decrease in weight loss at 1 mg/kg, ip treated for 3 days and on third day administered with LPS at 30 mins post-compound challenge. Type of data set: functional, organism-based. Particulars: time 3.0 day.

NACHT, LRR and PYD domains-containing protein 3, sequence (Q8R4B8 whole entry, the tested form may be a part): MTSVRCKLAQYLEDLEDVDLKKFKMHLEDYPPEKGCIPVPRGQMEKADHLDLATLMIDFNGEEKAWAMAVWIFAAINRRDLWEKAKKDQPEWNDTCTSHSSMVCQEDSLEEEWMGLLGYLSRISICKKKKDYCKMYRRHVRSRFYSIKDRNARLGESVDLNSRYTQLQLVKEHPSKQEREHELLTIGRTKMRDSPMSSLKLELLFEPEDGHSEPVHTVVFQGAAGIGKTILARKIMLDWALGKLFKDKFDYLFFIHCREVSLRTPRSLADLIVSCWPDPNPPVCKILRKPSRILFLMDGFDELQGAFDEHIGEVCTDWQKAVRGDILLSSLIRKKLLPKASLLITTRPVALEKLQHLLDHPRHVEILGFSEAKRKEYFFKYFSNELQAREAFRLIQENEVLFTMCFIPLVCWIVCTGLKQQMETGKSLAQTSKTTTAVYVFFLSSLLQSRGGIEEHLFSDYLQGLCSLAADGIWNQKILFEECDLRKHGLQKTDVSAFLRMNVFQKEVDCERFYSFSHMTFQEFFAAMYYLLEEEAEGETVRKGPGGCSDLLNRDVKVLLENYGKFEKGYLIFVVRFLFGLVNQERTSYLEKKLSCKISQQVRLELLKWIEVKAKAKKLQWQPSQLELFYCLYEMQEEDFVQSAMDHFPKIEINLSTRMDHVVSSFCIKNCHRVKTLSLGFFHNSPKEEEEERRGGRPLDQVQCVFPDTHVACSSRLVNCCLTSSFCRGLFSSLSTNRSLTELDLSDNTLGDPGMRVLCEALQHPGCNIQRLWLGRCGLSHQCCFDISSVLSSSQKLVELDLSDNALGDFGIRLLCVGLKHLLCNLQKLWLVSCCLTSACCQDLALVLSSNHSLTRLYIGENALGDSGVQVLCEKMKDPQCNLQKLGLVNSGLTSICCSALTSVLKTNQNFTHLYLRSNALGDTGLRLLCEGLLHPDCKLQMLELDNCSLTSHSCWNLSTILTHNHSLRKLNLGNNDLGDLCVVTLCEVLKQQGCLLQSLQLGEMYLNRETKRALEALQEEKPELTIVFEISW

As for `C=C1C(=O)[C@]23[C@H](OC(=O)Nc4cccc(Cl)c4)[C@H]1CC[C@H]2[C@]12C=CCC(C)(C)[C@H]1[C@H](O)[C@@]3(O)OC2`, the IC50 at 24 h in [1] is more than 10000 nM. The IC50 in data set [2] worked out at 80.8 nM.

Regarding `C=C1C(=O)[C@]23[C@H](OC(=O)NC4CCCC4)[C@H]1CC[C@H]2[C@]12C=CCC(C)(C)[C@H]1[C@H](O)[C@@]3(O)OC2`, the IC50 at 24 h in data set [1] is more than 10000 nM. Moreover, in data set [2], the IC50 was 178 nM.

With `C=C1C(=O)[C@]23[C@H](OC(=O)Nc4ccccn4)[C@H]1CC[C@H]2[C@]12C=CCC(C)(C)[C@H]1[C@H](O)[C@@]3(O)OC2`, in [1], the IC50 at 24 h is more than 10000 nM. In data set [2], the IC50 came out at 96.1 nM.

As to `CC(C)(O)c1coc(S(=O)(=O)NC(=O)Nc2c3c(cc4c2CCC4)CCC3)c1`, the IC50 at 24 h in data set [1] was more than 10000 nM.

For `C=C1C(=O)[C@]23[C@H](OC(=O)NC4CCCCC4)[C@H]1CC[C@H]2[C@]12C=CCC(C)(C)[C@H]1[C@H](O)[C@@]3(O)OC2`, the IC50 at 24 h in [1] was more than 10000 nM. Moreover, the IC50 in data set [2] is 135 nM.

As for `C=C1C(=O)[C@]23[C@H](OC(=O)Nc4ccccc4Cl)[C@H]1CC[C@H]2[C@]12C=CCC(C)(C)[C@H]1[C@H](O)[C@@]3(O)OC2`, in data set [1], the IC50 at 24 h was more than 10000 nM. Besides, in [2], the IC50 was determined as 88.6 nM.

For the molecule `C[C@@H]1C[C@H]2[C@@H]3CCC4=CC(=O)C=C[C@]4(C)[C@@]3(F)[C@@H](O)C[C@]2(C)[C@@]1(O)C(=O)CO`, the outcome in the data set with Mus musculus [3], in the data set with Mus musculus [4], with Mus musculus [5], in the data set with Mus musculus [6], with Mus musculus [7] and in the data set with Mus musculus [8] was Active.

Regarding `C=C1C(=O)[C@]23[C@H](O)[C@H]1CC[C@H]2[C@@]12CO[C@]3(O)[C@@H](O)[C@@H]1C(C)(C)CC[C@@H]2O` [ORIDONIN], in the data set with Mus musculus [9], the result was Active. The IC50 at 24 h in data set [1] is more than 10000 nM. Further, the IC50 in data set [2] came out at 1240 nM.

On to `C=C1C(=O)[C@]23[C@H](O)[C@H]1CC[C@H]2[C@]12C=CCC(C)(C)[C@H]1[C@H](O)[C@@]3(O)OC2`, for which the IC50 at 24 h in [1] is more than 10000 nM. Further, the IC50 in [2] was determined as 131 nM.

For `C=C1C(=O)[C@]23[C@H](OC(=O)Nc4cccc5ccccc45)[C@H]1CC[C@H]2[C@]12C=CCC(C)(C)[C@H]1[C@H](O)[C@@]3(O)OC2`, the IC50 at 24 h in data set [1] is more than 10000 nM. Moreover, in data set [2], the IC50 amounted to 74.9 nM.
